We go through five molecules from US8449898B2 (priority 2007, dated 2013).

Assay [1] concerns Pseudoperonospora cubensis (the causal agent of cucumber downy mildew). In words: Test B: cucumber downy mildew, preventive spray on cucumber seedlings. It is filed as in vivo.
The test system of assay [2] is Phytophthora infestans (the causal agent of tomato late blight). Kind of assay: whole plant or invertebrate. It is filed as in vivo. The following applies: for pest or weed control at 0.4 ppm / pest or weed control at 2 ppm / pest or weed control at 10 ppm / pest or weed control at 40 ppm / pest or weed control at 200 ppm / pest or weed control at 0.04 ppm / pest or weed control at 0.08 ppm / pest or weed control at 0.016 ppm: Phytophthora infestans; for TLB Obsd: Table D; for TLB Obsd (observed effect, tomato late blight): component (b) alone.

Where [3] appears, read: Pseudoperonospora cubensis, Table A, component (b) alone 0.4 ppm, read-out: CDM Obsd (disease control rating).
Setting [4] is: Pseudoperonospora cubensis, Table A, component (b) alone 2 ppm, read-out: CDM Obsd (disease control rating).
Setting [5] is: Pseudoperonospora cubensis, Table A, component (b) alone 10 ppm, read-out: CDM Obsd (disease control rating).
The mark [6] stands for this setting: Pseudoperonospora cubensis, Table A, component (b) alone 40 ppm, read-out: CDM Obsd (disease control rating).
The mark [7] stands for this setting: Pseudoperonospora cubensis, Table A, component (b) alone 200 ppm, read-out: CDM Obsd (disease control rating).
Where [8] appears, read: Pseudoperonospora cubensis, Table G, component (b) alone at 0.4 ppm, read-out: CDM Obsd.
[9] abbreviates: Pseudoperonospora cubensis, Table G, component (b) alone at 2 ppm, read-out: CDM Obsd.
[10] abbreviates: Pseudoperonospora cubensis, Table G, component (b) alone at 10 ppm, read-out: CDM Obsd.
The mark [11] stands for this setting: Pseudoperonospora cubensis, Table G, component (b) alone at 40 ppm, read-out: CDM Obsd.
Where [12] appears, read: Pseudoperonospora cubensis, Table G, component (b) alone at 200 ppm, read-out: CDM Obsd.
Where [13] appears, read: Pseudoperonospora cubensis, component (b) alone, 2 ppm, read-out: CDM Obsd.
[14] abbreviates: Pseudoperonospora cubensis, component (b) alone, 10 ppm, read-out: CDM Obsd.
[15] abbreviates: read-out: TLB Obsd (disease control rating), Table A, component (b) alone 0.4 ppm.
The mark [16] stands for this setting: read-out: TLB Obsd (disease control rating), Table A, component (b) alone 2 ppm.
[17] abbreviates: read-out: TLB Obsd (disease control rating), Table A, component (b) alone 10 ppm.
Where [18] appears, read: read-out: TLB Obsd (disease control rating), Table A, component (b) alone 40 ppm.
[19] abbreviates: read-out: TLB Obsd (disease control rating), Table A, component (b) alone 200 ppm.
The mark [20] stands for this setting: read-out: TLB Obsd, component (b) alone, 2 ppm.
[21] abbreviates: read-out: TLB Obsd, component (b) alone, 10 ppm.
Where [22] appears, read: Pseudoperonospora cubensis, component (b) alone, 2 ppm, read-out: CDM Obsd (observed effect, cucumber downy mildew).
Where [23] appears, read: Pseudoperonospora cubensis, component (b) alone, 10 ppm, read-out: CDM Obsd (observed effect, cucumber downy mildew).
Setting [24] is: Pseudoperonospora cubensis, component (b) alone, 40 ppm, read-out: CDM Obsd (observed effect, cucumber downy mildew).
The mark [25] stands for this setting: read-out: TLB Obsd (observed effect, tomato late blight), component (b) alone, 2 ppm.
Setting [26] is: read-out: TLB Obsd (observed effect, tomato late blight), component (b) alone, 10 ppm.
Where [27] appears, read: read-out: TLB Obsd (observed effect, tomato late blight), component (b) alone, 40 ppm.

Like-named read-outs stand apart in the source and are kept apart here.

Regarding `O=C(Nc1ccccc1-c1ccc(Cl)cc1)c1cccnc1Cl` [boscalid], the values for the pest or weed control at 0.4 ppm in assay [1] (setting [3]), in assay [1] (setting [8]) and in assay [2] (setting [15]) were 47%, 47% and 9%, respectively. The pest or weed control at 2 ppm in assay [1] (setting [4]) was determined as 47%; in assay [1] (setting [9]) it was 47%; in assay [1] (setting [13]) it was 0%; in assay [2] (setting [16]) it was 17%; in assay [2] (setting [20]), 0%. Also, the pest or weed control at 10 ppm in assay [1] (setting [5]) stood at 47%; in assay [1] (setting [10]), 26%; in assay [1] (setting [14]) it was 0%; in assay [2] (setting [17]) it was 17%; in assay [2] (setting [21]), 0%. The pest or weed control at 40 ppm is 47% in assay [1] (setting [6]); 26% in assay [1] (setting [11]); 0% in assay [1] (Pseudoperonospora cubensis, component (b) alone, 40 ppm, read-out: CDM Obsd); 17% in assay [2] (setting [18]); 17% in assay [2] (read-out: TLB Obsd, component (b) alone, 40 ppm). For the same molecule, the pest or weed control at 200 ppm in assay [1] (setting [7]) worked out at 47%; in assay [1] (setting [12]) it was 26%; in assay [1] (Pseudoperonospora cubensis, component (b) alone, 200 ppm, read-out: CDM Obsd), 0%; in assay [2] (setting [19]), 9%; in assay [2] (read-out: TLB Obsd, component (b) alone, 200 ppm), 32%. In addition, the pest or weed control at 0.04 ppm worked out at 68% in assay [1] (Pseudoperonospora cubensis, component (b) alone, read-out: CDM Obsd) and 25% in assay [2] (read-out: TLB Obsd, component (b) alone, 0.04 ppm).

Take `N#Cc1c(Cl)c(Cl)c(Cl)c(C#N)c1Cl` [chlorothalonil]: the pest or weed control at 0.016 ppm in assay [1] (Pseudoperonospora cubensis, Table F, component (b) alone at 0.016 ppm, read-out: CDM Obsd) stood at 47%; in assay [2] (read-out: TLB Obsd, Table E, component (b) alone at 0.016 ppm) it was 31%. Moreover, the pest or weed control at 0.08 ppm in assay [1] (Pseudoperonospora cubensis, Table F, component (b) alone at 0.08 ppm, read-out: CDM Obsd) turned out to be 33%; in assay [1] (Pseudoperonospora cubensis, component (b) alone, 0.08 ppm, read-out: CDM Obsd (observed effect, cucumber downy mildew)) it was 0%; in assay [2] (read-out: TLB Obsd (observed effect, tomato late blight), component (b) alone, 0.08 ppm), 14%; in assay [2] (read-out: TLB Obsd, Table E, component (b) alone at 0.08 ppm) it was 0%. Moreover, the pest or weed control at 0.4 ppm is 47% in assay [1] (Pseudoperonospora cubensis, Table F, component (b) alone at 0.4 ppm, read-out: CDM Obsd); 0% in assay [1] (Pseudoperonospora cubensis, component (b) alone, 0.4 ppm, read-out: CDM Obsd (observed effect, cucumber downy mildew)); 14% in assay [2] (read-out: TLB Obsd (observed effect, tomato late blight), component (b) alone, 0.4 ppm); 73% in assay [2] (read-out: TLB Obsd, Table E, component (b) alone at 0.4 ppm). The pest or weed control at 2 ppm came to 99% in assay [1] (Pseudoperonospora cubensis, Table F, component (b) alone at 2 ppm, read-out: CDM Obsd); 0% in assay [1] (setting [22]); 21% in assay [2] (setting [25]); 100% in assay [2] (read-out: TLB Obsd, Table E, component (b) alone at 2 ppm). Moreover, the pest or weed control at 10 ppm in assay [1] (Pseudoperonospora cubensis, Table F, component (b) alone at 10 ppm, read-out: CDM Obsd) turned out to be 100%; in assay [1] (setting [23]), 70%; in assay [2] (setting [26]), 100%; in assay [2] (read-out: TLB Obsd, Table E, component (b) alone at 10 ppm), 100%. Besides, the pest or weed control at 40 ppm in assay [1] (setting [24]) came out at 71%; in assay [2] (setting [27]), 100%.

On to `[Cu+2].[OH-].[OH-]` [copper hydroxide], for which the “CDM Obsd” value came to 53% in assay [1] (Table D, component (b) alone at 2 ppm); 63% in assay [1] (Table D, component (b) alone at 10 ppm); 85% in assay [1] (Table D, component (b) alone at 40 ppm); 85% in assay [1] (Table D, component (b) alone at 200 ppm); 88% in assay [1] (Table D, component (b) alone at 500 ppm); 47% in assay [1] (component (b) alone 2 ppm (Compound 1 0 ppm)). Moreover, the “CDM Obsd” value amounted to 47% in assay [1] (component (b) alone 10 ppm (Compound 1 0 ppm)), 47% in assay [1] (component (b) alone 40 ppm (Compound 1 0 ppm)), 85% in assay [1] (component (b) alone 200 ppm (Compound 1 0 ppm)) and 93% in assay [1] (component (b) alone 500 ppm (Compound 1 0 ppm)). In addition, the “CDM Obsd (observed effect, cucumber downy mildew)” value in assay [1] (component (b) alone, 2 ppm) was 0; in assay [1] (component (b) alone, 10 ppm), 0; in assay [1] (component (b) alone, 40 ppm), 0; in assay [1] (component (b) alone, 200 ppm), 29; in assay [1] (component (b) alone, 500 ppm), 37. Moreover, the “TLB Obsd” value in assay [2] (component (b) alone at 2 ppm) came to 32%; in assay [2] (component (b) alone at 10 ppm), 48%; in assay [2] (component (b) alone at 40 ppm), 40%; in assay [2] (component (b) alone at 200 ppm), 70%; in assay [2] (component (b) alone at 500 ppm), 91%. Further, the “TLB Obsd (observed effect, tomato late blight)” value came out at 22 in assay [2] (2 ppm); 36 in assay [2] (10 ppm); 50 in assay [2] (40 ppm); 71 in assay [2] (200 ppm); 77 in assay [2] (500 ppm).

As for `Cc1ccc(-c2c(Cl)nc(C#N)n2S(=O)(=O)N(C)C)cc1` [cyazofamid], in assay [1] (Pseudoperonospora cubensis, component (b) alone 0.016 ppm (Compound 1 0 ppm), read-out: CDM Obsd), the pest or weed control at 0.016 µg/mL was determined as 47%. Moreover, the pest or weed control at 0.08 µg/mL in assay [1] (Pseudoperonospora cubensis, component (b) alone 0.08 ppm (Compound 1 0 ppm), read-out: CDM Obsd) is 100%. In addition, the pest or weed control at 0.4 µg/mL in assay [1] (Pseudoperonospora cubensis, component (b) alone 0.4 ppm (Compound 1 0 ppm), read-out: CDM Obsd) stood at 100%. Besides, the pest or weed control at 2 µg/mL in assay [1] (Pseudoperonospora cubensis, component (b) alone 2 ppm (Compound 1 0 ppm), read-out: CDM Obsd) turned out to be 100%. Further, the pest or weed control at 10 µg/mL in assay [1] (Pseudoperonospora cubensis, component (b) alone 10 ppm (Compound 1 0 ppm), read-out: CDM Obsd) came out at 100%. The pest or weed control at 0.016 ppm amounted to 43% in assay [1] (Pseudoperonospora cubensis, component (b) alone, 0.016 ppm, read-out: CDM Obsd) and 25% in assay [2] (read-out: TLB Obsd, component (b) alone, 0.016 ppm). Moreover, the pest or weed control at 0.08 ppm in assay [1] (Pseudoperonospora cubensis, component (b) alone, 0.08 ppm, read-out: CDM Obsd) was 57%; in assay [2] (read-out: TLB Obsd, component (b) alone, 0.08 ppm), 52%. Further, the pest or weed control at 0.4 ppm in assay [1] (Pseudoperonospora cubensis, component (b) alone, 0.4 ppm, read-out: CDM Obsd) turned out to be 100%; in assay [2] (read-out: TLB Obsd, component (b) alone, 0.4 ppm) it was 58%. Besides, the pest or weed control at 2 ppm in assay [1] (setting [13]) and in assay [2] (setting [20]) was 100% in each case. In addition, the pest or weed control at 10 ppm in assay [1] (setting [14]) and in assay [2] (setting [21]) was 100% throughout.

For the molecule `CCNC(=O)NC(=O)/C(C#N)=N/OC` [cymoxanil], the pest or weed control at 0.4 ppm was found to be 47% in assay [1] (setting [3]), 26% in assay [1] (setting [8]) and 9% in assay [2] (setting [15]). Also, the pest or weed control at 2 ppm in assay [1] (setting [4]) stood at 47%; in assay [1] (setting [9]) it was 26%; in assay [1] (setting [22]) it was 0%; in assay [2] (setting [16]), 76%; in assay [2] (setting [25]), 46%. The pest or weed control at 10 ppm amounted to 47% in assay [1] (setting [5]); 26% in assay [1] (setting [10]); 0% in assay [1] (setting [23]); 100% in assay [2] (setting [17]); 100% in assay [2] (setting [26]). In addition, the pest or weed control at 40 ppm in assay [1] (setting [6]) turned out to be 47%; in assay [1] (setting [11]), 26%; in assay [1] (setting [24]), 0%; in assay [2] (setting [18]), 100%; in assay [2] (setting [27]), 100%. For the same molecule, the pest or weed control at 200 ppm in assay [1] (setting [7]) amounted to 47%; in assay [1] (setting [12]), 26%; in assay [1] (Pseudoperonospora cubensis, component (b) alone, 200 ppm, read-out: CDM Obsd (observed effect, cucumber downy mildew)), 21%; in assay [2] (setting [19]), 100%; in assay [2] (read-out: TLB Obsd (observed effect, tomato late blight), component (b) alone, 200 ppm) it was 100%. Moreover, the pest or weed control at 0.04 ppm in assay [1] (Pseudoperonospora cubensis, component (b) alone, read-out: CDM Obsd (observed effect, cucumber downy mildew)) is 15%; in assay [2] (read-out: TLB Obsd (observed effect, tomato late blight), component (b) alone, 0.04 ppm), 44%.
